In patent publication US5294611A, “Angiotensin II receptor blocking 2,3,6 substituted quinazolinones” (American Cyanamid Company, priority 1993, dated 1994):
Where two headings read alike, the source gives them in different places.

Tested on: Angiotensin II (AII) vasopressor response
Experiment: AII Challenge: antagonism of angiotensin II vasopressor response in conscious spontaneously hypertensive rats
Format: in vivo, rat (male okamoto-Aoki SHR)
Conditions: for inhibition in vivo at 3 mg/kg: Rattus norvegicus, read-out: Inhibition; for Change: single SHR
Outline: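 Conscious male SHR (16–20 weeks, ~330 g) cannulated under local procaine, blood pressure recorded via transducer. Angiotensin II (human) 0.05 and 0.1 ug/kg i.v. given before and after test compound dosed i.v., i.p. or orally; response measured as rise in systolic pressure (mmHg).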

[1] = iv, 0.5 h, SHR n=2, 3 mg/kg I.V., AII 0.05 mcg/kg IV, 30 min post dose
[2] = iv, 0.5 h, SHR n=2, 3 mg/kg I.V., AII 0.1 mcg/kg IV, 30 min post dose
[3] = iv, 1 h, SHR n=2, 3 mg/kg I.V., AII 0.05 mcg/kg IV, 60 min post dose
[4] = iv, 2 h, SHR n=2, 3 mg/kg I.V., AII 0.05 mcg/kg IV, 120 min post dose
[5] = iv, 2 h, SHR n=2, 3 mg/kg I.V., AII 0.1 mcg/kg IV, 120 min post dose
[6] = iv, 3 h, SHR n=2, 3 mg/kg I.V., AII 0.05 mcg/kg IV, 180 min post dose
[7] = iv, 3 h, SHR n=2, 3 mg/kg I.V., AII 0.1 mcg/kg IV, 180 min post dose
[8] = iv, […], SHR n=2, 3 mg/kg I.V., AII 0.05 mcg/kg IV, 90 min post dose
[9] = iv, […], SHR n=2, 3 mg/kg I.V., AII 0.1 mcg/kg IV, 90 min post dose
[10] = SHR n=2, 3 mg/kg I.V., AII 0.05 mcg/kg IV, 30 min post dose
[11] = SHR n=2, 3 mg/kg I.V., AII 0.05 mcg/kg IV, 60 min post dose
[12] = SHR n=2, 3 mg/kg I.V., AII 0.05 mcg/kg IV, 90 min post dose
[13] = SHR n=2, 3 mg/kg I.V., AII 0.05 mcg/kg IV, 120 min post dose
[14] = SHR n=2, 3 mg/kg I.V., AII 0.05 mcg/kg IV, 180 min post dose
[15] = SHR n=2, 3 mg/kg I.V., AII 0.1 mcg/kg IV, 30 min post dose
[16] = SHR n=2, 3 mg/kg I.V., AII 0.1 mcg/kg IV, 60 min post dose
[17] = SHR n=2, 3 mg/kg I.V., AII 0.1 mcg/kg IV, 90 min post dose
[18] = SHR n=2, 3 mg/kg I.V., AII 0.1 mcg/kg IV, 120 min post dose
[19] = SHR n=2, 3 mg/kg I.V., AII 0.1 mcg/kg IV, 180 min post dose

## CCCCc1nc2ccc([C@@H]3[C@@H]4C(=O)OC[C@@H]4ON3Cc3ccccc3)cc2c(=O)n1Cc1ccc(-c2ccccc2-c2nnn[nH]2)cc1 (relative stereo) [Example 56]
[1]
  inhibition in vivo at 3 mg/kg: 100%
[2]
  inhibition in vivo at 3 mg/kg: 100%
[3]
  inhibition in vivo at 3 mg/kg: 100%
iv, 1 h, SHR n=2, 3 mg/kg I.V., AII 0.1 mcg/kg IV, 60 min post dose
  inhibition in vivo at 3 mg/kg: 89%
[4]
  inhibition in vivo at 3 mg/kg: 77%
[5]
  inhibition in vivo at 3 mg/kg: 78%
[6]
  inhibition in vivo at 3 mg/kg: 77%
[7]
  inhibition in vivo at 3 mg/kg: 76%
iv, 4 h, SHR n=2, 3 mg/kg I.V., AII 0.05 mcg/kg IV, 240 min post dose
  inhibition in vivo at 3 mg/kg: 72%
iv, 4 h, SHR n=2, 3 mg/kg I.V., AII 0.1 mcg/kg IV, 240 min post dose
  inhibition in vivo at 3 mg/kg: 56%
iv, 5 h, SHR n=2, 3 mg/kg I.V., AII 0.05 mcg/kg IV, 300 min post dose
  inhibition in vivo at 3 mg/kg: 65%
iv, 5 h, SHR n=2, 3 mg/kg I.V., AII 0.1 mcg/kg IV, 300 min post dose
  inhibition in vivo at 3 mg/kg: 67%
[8]
  inhibition in vivo at 3 mg/kg: 100%
[9]
  inhibition in vivo at 3 mg/kg: 89%
po, 0.5 h, SHR n=2, 3 mg/kg P.O., AII 0.05 mcg/kg IV, 30 min post dose
  inhibition in vivo at 3 mg/kg: 31%
po, 0.5 h, SHR n=2, 3 mg/kg P.O., AII 0.1 mcg/kg IV, 30 min post dose
  inhibition in vivo at 3 mg/kg: 11%
po, 1 h, SHR n=2, 3 mg/kg P.O., AII 0.05 mcg/kg IV, 60 min post dose
  inhibition in vivo at 3 mg/kg: 18%
po, 1 h, SHR n=2, 3 mg/kg P.O., AII 0.1 mcg/kg IV, 60 min post dose
  inhibition in vivo at 3 mg/kg: 19%
po, 2 h, SHR n=2, 3 mg/kg P.O., AII 0.05 mcg/kg IV, 120 min post dose
  inhibition in vivo at 3 mg/kg: 36%
po, 2 h, SHR n=2, 3 mg/kg P.O., AII 0.1 mcg/kg IV, 120 min post dose
  inhibition in vivo at 3 mg/kg: 27%
po, 3 h, SHR n=2, 3 mg/kg P.O., AII 0.05 mcg/kg IV, 180 min post dose
  inhibition in vivo at 3 mg/kg: -9%
po, 3 h, SHR n=2, 3 mg/kg P.O., AII 0.1 mcg/kg IV, 180 min post dose
  inhibition in vivo at 3 mg/kg: 3%
po, […], SHR n=2, 3 mg/kg P.O., AII 0.05 mcg/kg IV, 90 min post dose
  inhibition in vivo at 3 mg/kg: 36%
po, […], SHR n=2, 3 mg/kg P.O., AII 0.1 mcg/kg IV, 90 min post dose
  inhibition in vivo at 3 mg/kg: 19%
[10]
  Average Change: 0 mmHg
[11]
  Average Change: 0 mmHg
[12]
  Average Change: 0 mmHg
[13]
  Average Change: 7.5 mmHg
[14]
  Average Change: 7.5 mmHg
SHR n=2, 3 mg/kg I.V., AII 0.05 mcg/kg IV, 240 min post dose
  Average Change: 9 mmHg
SHR n=2, 3 mg/kg I.V., AII 0.05 mcg/kg IV, 300 min post dose
  Average Change: 11.5 mmHg
[15]
  Average Change: 0 mmHg
[16]
  Average Change: 5 mmHg
[17]
  Average Change: 5 mmHg
[18]
  Average Change: 10 mmHg
[19]
  Average Change: 11 mmHg
SHR n=2, 3 mg/kg I.V., AII 0.1 mcg/kg IV, 240 min post dose
  Average Change: 20 mmHg
SHR n=2, 3 mg/kg I.V., AII 0.1 mcg/kg IV, 300 min post dose
  Average Change: 15 mmHg
SHR n=2, 3 mg/kg P.O., AII 0.05 mcg/kg IV, 30 min post dose
  Average Change: 19 mmHg
SHR n=2, 3 mg/kg P.O., AII 0.05 mcg/kg IV, 60 min post dose
  Average Change: 22.5 mmHg
SHR n=2, 3 mg/kg P.O., AII 0.05 mcg/kg IV, 90 min post dose
  Average Change: 17.5 mmHg
SHR n=2, 3 mg/kg P.O., AII 0.05 mcg/kg IV, 120 min post dose
  Average Change: 17.5 mmHg
SHR n=2, 3 mg/kg P.O., AII 0.05 mcg/kg IV, 180 min post dose
  Average Change: 30 mmHg
SHR n=2, 3 mg/kg P.O., AII 0.1 mcg/kg IV, 30 min post dose
  Average Change: 27.5 mmHg
SHR n=2, 3 mg/kg P.O., AII 0.1 mcg/kg IV, 60 min post dose
  Average Change: 25 mmHg
SHR n=2, 3 mg/kg P.O., AII 0.1 mcg/kg IV, 90 min post dose
  Average Change: 25 mmHg
SHR n=2, 3 mg/kg P.O., AII 0.1 mcg/kg IV, 120 min post dose
  Average Change: 22.5 mmHg
SHR n=2, 3 mg/kg P.O., AII 0.1 mcg/kg IV, 180 min post dose
  Average Change: 30 mmHg
3 mg/kg I.V., AII 0.05 mcg/kg IV, 30 min post dose
  Change: 0 mmHg
3 mg/kg I.V., AII 0.05 mcg/kg IV, 60 min post dose
  Change: 0 mmHg
3 mg/kg I.V., AII 0.05 mcg/kg IV, 90 min post dose
  Change: 0 mmHg
3 mg/kg I.V., AII 0.1 mcg/kg IV, 30 min post dose
  Change: 0 mmHg
3 mg/kg I.V., AII 0.1 mcg/kg IV, 60 min post dose
  Change: 5 mmHg
3 mg/kg I.V., AII 0.1 mcg/kg IV, 90 min post dose
  Change: 5 mmHg
3 mg/kg I.V., AII 0.1 mcg/kg IV, 120 min post dose
  Change: 10 mmHg
3 mg/kg P.O., AII 0.1 mcg/kg IV, 180 min post dose
  Change: 30 mmHg

## CCCCc1nc2ccc([C@H]3[C@@H]4C5CCC(C5)[C@@H]4ON3C)cc2c(=O)n1Cc1ccc(-c2ccccc2-c2nnn[nH]2)cc1 (some centres unmarked) [Example 51]
[1]
  inhibition in vivo at 3 mg/kg: 89%
[2]
  inhibition in vivo at 3 mg/kg: 87%
[3]
  inhibition in vivo at 3 mg/kg: 63%
iv, 1 h
  inhibition in vivo at 3 mg/kg: 82%
[4]
  inhibition in vivo at 3 mg/kg: 83%
[5]
  inhibition in vivo at 3 mg/kg: 75%
[6]
  inhibition in vivo at 3 mg/kg: 67%
[7]
  inhibition in vivo at 3 mg/kg: 63%
[8]
  inhibition in vivo at 3 mg/kg: 78%
[9]
  inhibition in vivo at 3 mg/kg: 80%
[10]
  Average Change: 5 mmHg
[11]
  Average Change: 16.5 mmHg
[12]
  Average Change: 10 mmHg
[13]
  Average Change: 7.5 mmHg
[14]
  Average Change: 15 mmHg
[15]
  Average Change: 8 mmHg
[16]
  Average Change: 11 mmHg
[17]
  Average Change: 12.5 mmHg
[18]
  Average Change: 15.5 mmHg
[19]
  Average Change: 22.5 mmHg
3 mg/kg I.V., AII 0.05 mcg/kg IV, 180 min post dose
  Change: 15 mmHg
